Tests used:
[1] = Metabolism in human hepatic S9; details: for Liver S-9 T1/2: s9
Description: (§1) A typical incubation contained rat, mouse, dog or human liver microsomes (0.4-0.5 mg of protein), 100 mM potassium phosphate buffer (pH7.4), 50 μM test compound, an NADPH-generating system consisting of 0.5 mM NADP^+, 0.5 mM glucose-6-phosphate, 1 IU/mL glucose-6-phosphate dehydrogenase, 1 mg/mL diethylenetriaminepentaaceticacid (DETAPAC), and 3 mM MgCl2 in a final incubation volume of 0.25 mL. […] After centrifugation at 3000 rpm for 5 min, the organic fraction was collected, the solvent was removed with a stream of argon and the residue was reconstituted in 125 μL of MeOH and 125 μL H2O, mixed thoroughly, centrifuged at 13,000 rpm for 5 min and analyzed by high performance liquid chromatography. Samples were run on a Hitachi D-7000 HPLC system using a L-7100 analytical pump, L-7400 UV-Visible variable wavelength detector, and L-7600 automatic sample injector. […] Disappearance of the analyte was monitored over time. A plot of the area under the curve for the normalized analyte versus time afforded the half-life values and kapp.
Microsomes contain CYPs and FMO metabolic enzymes. S9 contains soluble enzymes (i.e., aldehyde oxidase, MAO, etc.).

[2] = test system: Male BALBc mice; details: mice, 100 mg/kg; for behavioral effects at 100 mg/kg: enantiomers
Source text: Male BALBc mice (20-22 g) were used throughout these studies. The animals were maintained in a temperature-controlled room with 12-hr periods of light and darkness and had continuous access to water and animal food. […] Groups contained 2-4 animals.

[3] = Metabolic stability in human liver microsomes; format: in vitro ADME; details: human, microsomes
Description: as §1

[4] = test system: normal human induced pluripotent stem cell (hiPSC) cardiomyocyte; details: normal hiPSC cardiomyocytes; for WT-Fold Prolongation: APD
[5] = test system: cardiomyocytes derived from hiPSCs from a LQTS3 patient; assay: cells; details: Homo sapiens, Cardiomyocyte, read-out: LQT-IC50 (uM)-Shortening
[6] = molecular target: Nav1.5 sodium channel, peak current (INaP) (Homo sapiens, UniProt Q14524, form not given); assay: in vitro; details: Peak Na+ (INaP) IC50
Description: (§2) This provided data to investigate the physiology and action of target compounds on individual ion channels. The assay used standardized protocols for culturing and conducting conventional whole cell recording that have been previously developed for both current and voltage-clamp to characterize action potentials using transfected cells. Briefly, the Nav1.5 sodium channel was transfected into HEK293 cells. […] Briefly, cells were plated on 0.1% gelatin-coated 35-mm plastic Petri dishes. […] Data was reported as IC50 values±STD (Table 1).

[7] = molecular target: Nav1.5 sodium channel transfected into HEK293 cells (Homo sapiens, UniProt Q14524); assay: in vitro
Description: as §2

[8] = test system: cardiomyocytes derived from hiPSCs from a LQTS3 patient; details: LQT3 cardiomyocytes
[9] = molecular target: hERG potassium channel (IKr) (Homo sapiens, UniProt Q12809); assay: Automated patch clamp, hERG (IKr) expressed in CHO cells; details: for IC50: hERG (IKr) IC50, CHO cells
hERG potassium channel (IKr), sequence (Q12809 whole entry): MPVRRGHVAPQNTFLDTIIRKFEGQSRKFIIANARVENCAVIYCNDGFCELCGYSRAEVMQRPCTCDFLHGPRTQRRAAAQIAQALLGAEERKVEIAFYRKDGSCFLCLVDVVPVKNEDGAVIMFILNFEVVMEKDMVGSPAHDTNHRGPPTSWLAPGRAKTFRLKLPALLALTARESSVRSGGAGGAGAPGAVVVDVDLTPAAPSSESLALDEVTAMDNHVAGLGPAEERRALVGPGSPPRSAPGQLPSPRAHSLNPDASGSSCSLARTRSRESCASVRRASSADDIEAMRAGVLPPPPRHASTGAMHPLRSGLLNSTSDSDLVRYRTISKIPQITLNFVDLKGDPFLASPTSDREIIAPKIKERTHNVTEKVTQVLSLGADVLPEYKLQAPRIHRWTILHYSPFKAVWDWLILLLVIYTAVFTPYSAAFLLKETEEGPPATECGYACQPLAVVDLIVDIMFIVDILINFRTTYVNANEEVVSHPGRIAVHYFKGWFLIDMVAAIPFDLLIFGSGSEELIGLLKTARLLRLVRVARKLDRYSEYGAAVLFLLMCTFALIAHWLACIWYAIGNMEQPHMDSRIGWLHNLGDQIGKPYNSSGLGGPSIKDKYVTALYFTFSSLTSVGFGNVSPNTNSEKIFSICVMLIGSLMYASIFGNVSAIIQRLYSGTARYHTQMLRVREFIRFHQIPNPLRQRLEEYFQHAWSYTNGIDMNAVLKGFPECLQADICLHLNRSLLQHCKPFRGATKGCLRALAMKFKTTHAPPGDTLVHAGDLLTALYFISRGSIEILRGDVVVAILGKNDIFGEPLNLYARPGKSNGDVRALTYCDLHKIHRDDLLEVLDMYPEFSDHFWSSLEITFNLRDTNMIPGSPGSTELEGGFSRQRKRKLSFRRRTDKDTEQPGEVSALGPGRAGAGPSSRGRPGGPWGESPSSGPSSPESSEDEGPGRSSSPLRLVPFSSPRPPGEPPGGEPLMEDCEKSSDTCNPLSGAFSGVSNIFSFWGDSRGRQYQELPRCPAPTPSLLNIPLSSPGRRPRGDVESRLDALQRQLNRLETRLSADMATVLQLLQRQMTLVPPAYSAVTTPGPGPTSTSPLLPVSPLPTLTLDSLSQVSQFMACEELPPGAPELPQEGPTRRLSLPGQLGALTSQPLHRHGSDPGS

| Structure (SMILES) | behavioral effects at 100 mg/kg [2] | Liver S-9, remaining after 1 hr ([1]; human, s9, 1 h) | WT-Fold Prolongation [4] | IC50 [5] | IC50 [6] | DNap/NaL ([7]; ratio peak IC50/late IC50) | LQT-Cessation Dose [8] | LQT-Fold Shortening [8] | IC50 [9] | DKr/NaL ([9]; ratio hERG IC50/late Na IC50) | DNaP/Kr ([9]; ratio peak Na IC50/hERG IC50) | also measured |
| --- | --- | --- | --- | --- | --- | --- | --- | --- | --- | --- | --- | --- |
| Cc1ccccc1OCC(N)c1ccccc1.Cl (stereo in doubt) [(R)-25] |  |  |  |  |  |  |  |  |  |  |  | Liver S-9 T1/2 ([1]; human): 6.8 h |
| Cc1cc(C)cc(OCC(N)c2ccccc2)c1.Cl (stereo in doubt) [(R)-70] | no apparent behavioral effects |  |  |  |  |  |  |  |  |  |  | Behavior Effect (R)-enantiomer [2]: No detectable effect; Liver S-9 T1/2 ([1]; human): 16.92 h; Liver Microsomes T1/2 [3]: 6.77 h |
| Cl.NC(COc1cc(C(F)(F)F)cc(C(F)(F)F)c1)c1ccccc1 (stereo in doubt) [(R)-78] | no apparent behavioral effects | >95% after 1 hr |  |  |  |  |  |  |  |  |  | Behavior Effect (R)-enantiomer [2]: No detectable effect; Liver Microsomes, remaining after 1 hr [3]: >95% after 1 hr |
| Cc1ccccc1OCC(N)c1ccccc1.Cl (stereo in doubt) [(S)-25] |  | >95% after 1 hr |  |  |  |  |  |  |  |  |  |  |
| Cc1cc(C)cc(OCC(N)c2ccccc2)c1.Cl (stereo in doubt) [(S)-70] | Minor lethargy | >95% after 1 hr |  |  |  |  |  |  |  |  |  | Behavior Effect (S)-enantiomer [2]: 2/4 lethargic; Liver Microsomes, remaining after 1 hr [3]: >95% after 1 hr |
| Cl.NC(COc1cc(C(F)(F)F)cc(C(F)(F)F)c1)c1ccccc1 (stereo in doubt) [(S)-78] | Minor lethargy |  |  |  |  |  |  |  |  |  |  | Behavior Effect (S)-enantiomer [2]: 2/4 shaking; Liver S-9 T1/2 ([1]; human): 17.33 h; Liver Microsomes, remaining after 1 hr [3]: >95% after 1 hr |
| Cl.NC(COc1ccccc1C(F)(F)F)c1ccccc1 (stereo in doubt) [(S)-82] | Minor lethargy | >95% after 1 hr |  |  |  |  |  |  |  |  |  | Behavior Effect (S)-enantiomer [2]: 2/4 slightly lethargic; Liver Microsomes T1/2 [3]: 6.08 h |
| Cc1cccc(C)c1OC[C@@H](C)N [(R)-Mexiletine, reference compound] |  |  |  |  |  |  |  |  |  |  |  | Liver S-9, remaining after 1 hr ([1]; human liver S-9, 1 hr): >95% after 1 hr |
| Cc1cccc(C)c1OC[C@H](C)N [(S)-Mexiletine, reference compound] |  |  |  |  |  |  |  |  |  |  |  | Liver S-9, remaining after 1 hr ([1]; human liver S-9, 1 hr): >95% after 1 hr |
| Cc1cccc(C)c1OCC(N)C(C)(C)C (stereo not shown) [Compound 12, 1-(2,6-dimethylphenoxy)-3,3-dimethylbutan-2-amine] |  |  | >4 | 0.648 µM | 91 µM | 8.3 | 22 µM | 1.182 | 49 µM | 4.5 | 1.9 | WT-EAD Dose [4]: 7.4 µM; IC50 [7]: 11 µM |
| NC(COc1ccccc1C(F)(F)F)c1ccccc1 (stereo not shown) [Compound 27, 1-phenyl-2-(2-(trifluoromethyl)phenoxy)ethanamine] |  |  | None | > 0.8 µM | 41.1 µM | 39.5 | 66 µM | 1.783 | 37.5 µM | 36.1 | 1.1 | Cessation of Beating [4]: 66 µM; WT-Prolongation Dose [4]: None; IC50 [7]: 1.04 µM |
| Cc1cc(C)cc(OCC(C)N)c1 (stereo not shown) [Compound 55] |  |  | 1.159 | 4.45 µM | 154 µM | 9.1 | 200 µM | 1.232 | 49 µM | 2.9 | 3.1 | Cessation of Beating [4]: None; IC50 [7]: 17 µM |
| Cc1ccc(OCC(N)c2ccccc2)c(C)c1.Cl (stereo not shown) [Compound 66] |  |  | None | 0.486 µM | 22.1 µM | 10.5 | 66 µM | 1.192 | 5.9 µM | 2.8 | 3.7 | Cessation of Beating [4]: 66 µM; WT-Prolongation Dose [4]: None; DNap/NaL ([7]; ratio peak/late IC50, Example 2): 10.7; IC50 ([9]; Example 2): 5.9 µM; DKr/NaL ([9]; ratio, Example 2): 2.8; DNaP/Kr ([9]; ratio, Example 2): 3.7 |
